Assay results as given in publication PMC11218446, “Antibacterial efficacy and membrane mechanism of action of the Serratia-derived non-ionic lipopeptide, serrawettin W2-FL10” (Microbiology Spectrum, 2024).
Values joined by “and” are separate entries in the source; they are usually repeats but may differ in a detail not shown here. Equal entries are not always repeated.

Test system: E. faecium S1
Experiment: Broth microdilution assay (OD 600 nm)
Type: cell-based, Enterococcus faecium
Procedure: Serrawettin W2-FL10 (95% pure) was tested for antibacterial activity using a broth microdilution susceptibility assay ([6]), with melittin included as an antibiotic control. The serrawettin W2-FL10 was prepared in 70% MeCN to 1.00 mg/mL, from which aliquots were prepared using 70% MeCN to a concentration of 50 µg/mL or 500 µg/mL, while aliquots of melittin were prepared using analytical quality H2O to 128 µg/mL. Fifty microliters of the respective W2-FL10 aliquots or melittin were dispensed into a clear 96-well plate and a microdilution (in 70% MeCN for W2-FL10 or analytical quality H2O for melittin) was performed within the plate. The plate was air-dried to remove the solvent and placed in a desiccator with chloroform for 20 min for sterilization.
All the cultures (inoculated into 5 mL MHB, or 5 mL TSB for Listeria and Enterococcus strains) were incubated at 37°C to reach an optical density (OD) of 0.4 at 600 nm (∼10^7 CFU/mL). A 1:20 dilution of the test strain (final concentration of ∼10^5 CFU/mL) was prepared and 100 µL was dispensed into each well (final concentration of W2-FL10 at 1.5–125 µg/mL and melittin at 2–32 µg/mL). Sterile broth and the OD-adjusted inoculum were included as positive controls, while sterile broth (no inoculum) was included as a negative control. The 96-well plate was incubated for 18 h at 37°C. All the tests were performed in triplicate, with independent duplicates. Following incubation, the absorbance was measured using a microtiter plate reader at 600 nm. The 50% growth inhibition concentration (IC50) was determined using GraphPad Prism version 5 for Windows [GraphPad Software, San Diego, USA (www.graphpad.com)]. A sigmodal curve with variable slope was fitted to each set of dose-repose data according to Rautenbach et al. ([17]) using equation (1):
(1) Y=bottom+(top−bottom)/1+10^logIC50×Activity slope
The “top” and “bottom” are the maximum and minimum inhibition responses, respectively, for a particular set of dose-response data, while the activity slope is related to the Hill slope of a sigmoidal binding curve ([16]). […] The MIC value was determined for each set of dose-response data as the lowest concentration, resulting in ≥90% inhibition of the target cell growth. In addition to the MIC and IC50 inhibition parameters, an inhibition concentration factor (ICF), was calculated as outlined in Rautenbach et al. ([17]). The ICF is indicative of the concentration increase from the highest concentration where no activity is observed to the MIC of a compound.

In the case of `CCCCCCCC1CC(=O)N[C@H](CC(C)C)C(=O)N[C@@H](CO)C(=O)N[C@@H]([C@@H](C)O)C(=O)N[C@H](Cc2ccccc2)C(=O)N[C@@H](CC(C)C)C(=O)O1` (stereo partly shown) [W2-FL10, serrawettin W2-FL10], the “IC50 ± SD” value (50% growth inhibition, sigmoidal curve fit, n = 3) is reported as 5.4 ± 0.1 (3) µg/mL, the Selectivity index (LC50 (CHO)/IC50) is reported as 5.4 and the “ICF (MIC/IC50)^2” value (inhibition concentration factor) is reported as 5.9. The MIC (≥90% growth inhibition, OD 600 nm, TSB, 18 h 37°C) was 12.5 μg/mL and 12.5 (17.1) μg/mL.
